Results taken from PMC12518693, “Potent Fluorescent Probe for Target‐Engagement Studies of Allosteric Pyruvate Kinase Modulators” (Angewandte Chemie (International Ed. in English), 2025).

How the values were obtained:
[1] = test system: HEK293 cells; assay: Photostability in HEK293 cells under continuous 488 nm irradiation; type: cell-based; conditions: HEK293, 1 µM, 2 h, continuous 488 nm scanning 10 min
Experimental: Photostability of tracer IV was subsequently evaluated by treating HEK293 cells with the tracer (1 µM) for 2 h, followed by continuous scanning using 488 nm laser excitation for 10 min.
Figure S7. Photobleaching curve of compound IV (1 µM) in HEK293 cells under continuous laser irradiation. HEK293 cells were exposed to continuous excitation at 488 nm for 10 minutes using the same imaging settings as applied throughout this study. Integrated fluorescence intensity was recorded over time from an identical region of interest (ROI) across the time-lapse images to assess photostability.

[2] = target: PKM2 (Homo sapiens, UniProt P14618); assay: Native PAGE in-gel fluorescence, PKM2; type: binding; design: made in house
Experimental: To study the interaction of IV with PKLNluc and its oligomers, native PAGE was performed (Figure 4). Recombinant PKLNluc was incubated for 2 h with IV (0.15–10 µM) or DMSO and loaded onto gels. […] Colloidal blue staining and western blotting with anti‐PKL antibodies confirmed the predominance and identity of the bands (Figure S11a,d). […] PKM2 and PKL exist in equilibrium between oligomeric states, with PKM2 mainly dimeric when unbound.^[ [18] ^] As oligomerization regulates PK function,^[ [11], [54] ^] PKLNluc oligomerization was compared to PKLwt and PKM2 (Figure 4b,c). […] Colloidal blue and anti‐PKM2 blots confirmed PKM2 was mostly monomeric, explaining the lack of binding (Figure S11).
Given that FBP levels vary widely in cells,^[ [55], [56], [57] ^] and that it binds PKL with nanomolar affinity, ^[ [58] ^] IV binding to PKLwt was tested with and without FBP.
Recombinant PKLNLuc (4 x 950 ng) was incubated for 1 hour at ambient temperature with different concentrations of compound IV in a total volume of 60 µL Tris-HCl buffer pH 7.4 (50 mM Tris, 100 mM KCl, 10 mM MgCl2, 0.05% Tween 20). […]
A ChemiDoc imager (Bio-Rad, Alexa 488 filter) was used for fluorescence detection of compound IV bound to the proteins. […] The images of the in-gel fluorescence and luminescence detection were superimposed. […]

[3] = target: PKLNluc (Homo sapiens, UniProt P30613); assay: Live-cell NanoBRET assay in HEK293 cells; type: cell-based; design: host or cells: HEK293, transient transfection
Experimental: To investigate the intracellular interaction of tracer IV with PKLNluc, we prepared a mammalian expression construct, fusing Nluc to the N‐terminus of PKL. […] As a negative control for NanoBRET experiments, a construct expressing Nluc alone (without PKL) was also prepared.
Additionally, cell viability assays were conducted on cells transfected with either PKLNluc or Nluc plasmids and incubated with tracer IV (Figure S4b,c).
HEK293 cells were passed one day before transfection. The concentration of cells was adjusted to 2x10^5 cells/ml in Opti-MEM™ without phenol red (Invitrogen) supplemented with 1% FBS (Hyclone). Cells (4x10^6) were reversed transfected with 1 µg of PKLNluc plasmid or 1 µg Nluc plasmid and 9 µg of carrier DNA (Promega) using 30 µL of Fugene HD transfection reagent (Promega). […] Work solutions (100x) of tracer IV were prepared from DMSO stocks and further diluted to 20x concentrations with Tracer buffer (Promega). Twenty-five hours after transfection, the cells were treated with 5 µL/well of each of 20x concentrations of the tracer (final concentrations in the assay were in the range 0.001-1 µM, depending on the experiment). Thereafter, 10 µL of 10x solutions of competitors (diluted in Opti-MEM™ medium from stocks of 100x prepared in DMSO) were added to some sets of cells, while the other set received only Opti-MEM™ containing 1% DMSO. The cells were incubated for 2 h at 37°C (5% CO2). […] For each sample well, BRET ratios were calculated using the following formula:
BRET ratio mBU= AcceptorSDonorS-AcceptorNTDonorNT
Where AcceptorS is the luminescence intensity of the sample well at 550 nm, DonorS is the luminescence of the sample well at 450 nm, and AcceptorNT and DonorNT are the luminescence of the no-tracer control at 550 nm and 450 nm respectively.

PKLNluc, sequence (P30613 1-543 isoform P30613-2): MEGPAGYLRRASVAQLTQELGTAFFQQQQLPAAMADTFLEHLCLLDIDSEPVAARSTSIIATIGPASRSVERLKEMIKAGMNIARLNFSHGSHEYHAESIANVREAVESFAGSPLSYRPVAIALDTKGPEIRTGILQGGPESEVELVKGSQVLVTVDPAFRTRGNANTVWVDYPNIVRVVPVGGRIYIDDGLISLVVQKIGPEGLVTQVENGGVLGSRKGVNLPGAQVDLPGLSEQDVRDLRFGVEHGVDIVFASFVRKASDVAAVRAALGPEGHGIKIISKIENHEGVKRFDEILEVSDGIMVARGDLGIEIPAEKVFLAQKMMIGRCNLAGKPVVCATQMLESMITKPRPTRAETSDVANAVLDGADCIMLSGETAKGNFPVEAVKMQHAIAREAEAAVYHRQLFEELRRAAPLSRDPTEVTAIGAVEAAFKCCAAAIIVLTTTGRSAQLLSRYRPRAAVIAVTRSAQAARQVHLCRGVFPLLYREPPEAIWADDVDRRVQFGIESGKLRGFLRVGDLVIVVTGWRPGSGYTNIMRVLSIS
PKM2, sequence (P14618 whole entry): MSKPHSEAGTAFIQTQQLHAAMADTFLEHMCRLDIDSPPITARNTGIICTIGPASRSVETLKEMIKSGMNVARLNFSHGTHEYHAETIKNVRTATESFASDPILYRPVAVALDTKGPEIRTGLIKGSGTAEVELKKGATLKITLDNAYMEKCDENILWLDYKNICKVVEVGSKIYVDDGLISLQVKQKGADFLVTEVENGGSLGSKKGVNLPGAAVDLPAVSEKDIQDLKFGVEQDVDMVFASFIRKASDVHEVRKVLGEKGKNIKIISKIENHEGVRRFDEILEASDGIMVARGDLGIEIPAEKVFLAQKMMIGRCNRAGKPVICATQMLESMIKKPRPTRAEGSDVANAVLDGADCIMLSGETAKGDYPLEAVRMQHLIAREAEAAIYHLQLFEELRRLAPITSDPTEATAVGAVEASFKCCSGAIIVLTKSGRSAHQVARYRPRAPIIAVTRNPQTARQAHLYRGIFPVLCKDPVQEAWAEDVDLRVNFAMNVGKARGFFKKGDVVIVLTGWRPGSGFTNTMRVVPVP

decrease of fluorescence intensity [1]: approximately 6%
in-gel fluorescence labeling of PKM2 ([2]; IV 2.5 or 10 µM with FBP 10 µM, PKM2 tetrameric): no fluorescence
in-gel fluorescence labeling of PKM2 ([2]; IV 2.5 or 10 µM, without FBP): no fluorescence was detected
tracer concentration above which nonspecific binding signals emerged ([3]; HEK293, PKLNluc): exceeding 400 nM
EC50 ([3]; HEK293 transfected with PKLNluc, 2 h 37 °C, displacement control (20 µM mitapivat) subtracted, read-out: EC50 (cell), tracer titration, specific BRET signal): 18.4 nM
Compound: CN(C)c1ccc(S(=O)(=O)c2ccc3c(=O)n(Cc4cc[nH]n4)ncc3c2)c2nonc12 [Compound IV, 2-((1H-Pyrazol-3-yl)methyl)-6-((7-(dimethylamino)benzo[c][1,2,5]oxadiazol-4-yl)sulfonyl)phthalazin-1(2H)-one]
